Patent US12570612B2, “Substituted nitrogen heterocyclic compound and anesthetic effect thereof” (priority 2019, dated 2026)

Assays:
Sprague-Dawley rats = assay: animal or person; settings: for ED50: LORR in rats, tail vein, brackets = 95% confidence limit; for Approximate therapeutic index / Minimal lethal dose: rats
Experimental: Adult male Sprague-Dawley rats (250-300 g) were selected for the experiment. […] The anesthesia effects of the compounds were assessed in rats using a LORR assay and a period >30 s was considered as an indicator of general anesthesia.

H295R cell line [1] = assay: Adrenocortical function in vitro test: secretion of cortisol and corticosterone, Group B compounds; type: cell-based; settings: H295R cells; for EC50: 0.1-10000 nM, HPLC-MS/MS
H295R cell line [2] = assay: Adrenocortical function in vitro test: secretion of cortisol and corticosterone, Group A compounds; type: cell-based; settings: H295 cells; for EC50: 0.1-10000 nM, HPLC-MS/MS
[3] = Homo sapiens, NCI-H295R, read-out: EC50 (Corticosterone)
[4] = Homo sapiens, NCI-H295R, read-out: EC50 (Cortisol)
[5] = read-out: EC50 (Corticosterone)

**Q.** Which ED50 (Sprague-Dawley rats; Rattus norvegicus) does the source give for CC(C)O[C@H]1C[C@@H](OC(=O)c2cnnn2[C@H](C)c2ccccc2)C1 [Compound B26] here?
**A.** 1 to 2 mg/kg

**Q.** What about the Approximate therapeutic index (Sprague-Dawley rats) of the same compound?
**A.** >10

**Q.** What about the Minimal lethal dose (Sprague-Dawley rats) of the same compound?
**A.** >12 mg/kg

**Q.** And the “Corticosterone as an indicator to determine the presence of inhibition” value (shortened to “Corticosterone as an indicator … of inhibition”) (H295R cell line [1])?
**A.** 0

**Q.** And the “Cortisol as an indicator to determine the presence of inhibition” value (from here on “Cortisol as an indicator … of inhibition”) (H295R cell line [1])?
**A.** 0

**Q.** What about the EC50 (H295R cell line [1]; [3]) of the same compound?
**A.** > 100 nM

**Q.** And the EC50 (H295R cell line [1]; [4])?
**A.** > 100 nM

**Q.** Which ED50 (Sprague-Dawley rats) does the source give for CCOC(=O)c1cnnn1[C@H](C)c1ccccc1 [Compound B1] here?
**A.** A (A indicates that the measured ED50 is in the range of 0.04-0.50 mg/kg (including 0.04 and 0.50 mg/kg))

**Q.** What about the Approximate therapeutic index (Sprague-Dawley rats) of the same compound?
**A.** >20

**Q.** What about the Minimal lethal dose (Sprague-Dawley rats) of the same compound?
**A.** >8 mg/kg

**Q.** And the “Corticosterone as an indicator … of inhibition” value (H295R cell line [1])?
**A.** 0

**Q.** What about the “Cortisol as an indicator … of inhibition” value (H295R cell line [1]) of the same compound?
**A.** 0

**Q.** And the EC50 (H295R cell line [1]; [5])?
**A.** > 100 nM

**Q.** And the EC50 (H295R cell line [1]; read-out: EC50 (Cortisol))?
**A.** > 50 nM

**Q.** Which ED50 (Sprague-Dawley rats; Rattus norvegicus) does the source give for CCOC(=O)c1c(I)nnn1[C@H](C)c1ccccc1 [Compound B127] here?
**A.** 0.5 to 1 mg/kg

**Q.** What about the Approximate therapeutic index (Sprague-Dawley rats) of the same compound?
**A.** >23

**Q.** And the Minimal lethal dose (Sprague-Dawley rats)?
**A.** >16 mg/kg

**Q.** And the “Corticosterone as an indicator … of inhibition” value (H295R cell line [1])?
**A.** 0

**Q.** And the “Cortisol as an indicator … of inhibition” value (H295R cell line [1])?
**A.** 0

**Q.** What about the EC50 (H295R cell line [1]; [3]) of the same compound?
**A.** > 3000 nM

**Q.** What about the EC50 (H295R cell line [1]; [4]) of the same compound?
**A.** > 3000 nM

**Q.** What does the source list for COC(=O)C1=C(OC(=O)c2c(F)nnn2[C@H](C)c2ccccc2)CCC1 [Compound B36]?
**A.** ED50 (Sprague-Dawley rats; Rattus norvegicus): 0.5 to 1 mg/kg; Approximate therapeutic index (Sprague-Dawley rats): >7; Minimal lethal dose (Sprague-Dawley rats): >5 mg/kg; Corticosterone as an indicator to determine the presence of inhibition (H295R cell line [1]): 0; Cortisol as an indicator to determine the presence of inhibition (H295R cell line [1]): 0; EC50 (H295R cell line [1]; [3]): > 1000 nM; EC50 (H295R cell line [1]; [4]): > 1000 nM

**Q.** Which results are given for C[C@H](c1ccccc1)n1nnc(Br)c1C(=O)OC1CCC1 [Compound B104]?
**A.** ED50 (Sprague-Dawley rats): C (C indicates that the measured ED50 is in the range of 1.00-2.00 mg/kg (excluding 1.00 mg/kg, including 2.00 mg/kg)); Approximate therapeutic index (Sprague-Dawley rats): >10; Minimal lethal dose (Sprague-Dawley rats): >11 mg/kg; Corticosterone as an indicator to determine the presence of inhibition (H295R cell line [1]): 0; Cortisol as an indicator to determine the presence of inhibition (H295R cell line [1]): 0; EC50 (H295R cell line [1]; [5]): > 3000 nM; EC50 (H295R cell line [1]; read-out: EC50 (Cortisol)): > 3000 nM

**Q.** For C[C@H](c1ccccc1)n1nnc(Br)c1C(=O)OC(C)(C)C [Compound B110], which ED50 (Sprague-Dawley rats) is on record?
**A.** D (D indicates that the measured ED50 is in the range of 2.00-10.00 mg/kg (excluding 2.00 mg/kg, including 10.00 mg/kg))

**Q.** What about the Approximate therapeutic index (Sprague-Dawley rats) of the same compound?
**A.** >7

**Q.** What about the Minimal lethal dose (Sprague-Dawley rats) of the same compound?
**A.** >16 mg/kg

**Q.** And the “Corticosterone as an indicator … of inhibition” value (H295R cell line [1])?
**A.** 0

**Q.** And the “Cortisol as an indicator … of inhibition” value (H295R cell line [1])?
**A.** 0

**Q.** And the EC50 (H295R cell line [1]; [5])?
**A.** > 3000 nM

**Q.** What about the EC50 (H295R cell line [1]; read-out: EC50 (Cortisol)) of the same compound?
**A.** > 3000 nM

**Q.** How did the ED50 (Sprague-Dawley rats) turn out when C=CCOC(=O)c1c(I)nnn1[C@H](C)c1ccccc1 [Compound B136] was run?
**A.** D (D indicates that the measured ED50 is in the range of 2.00-10.00 mg/kg (excluding 2.00 mg/kg, including 10.00 mg/kg))

**Q.** What about the Approximate therapeutic index (Sprague-Dawley rats) of the same compound?
**A.** >6

**Q.** What about the Minimal lethal dose (Sprague-Dawley rats) of the same compound?
**A.** >18 mg/kg

**Q.** What about the “Corticosterone as an indicator … of inhibition” value (H295R cell line [1]) of the same compound?
**A.** 0

**Q.** And the “Cortisol as an indicator … of inhibition” value (H295R cell line [1])?
**A.** 0

**Q.** What about the EC50 (H295R cell line [1]; [5]) of the same compound?
**A.** > 1000 nM

**Q.** And the EC50 (H295R cell line [1]; read-out: EC50 (Cortisol))?
**A.** > 1000 nM

**Q.** Which ED50 (Sprague-Dawley rats) does the source give for C[C@H](c1ccccc1)n1nnc(Cl)c1C(=O)OC1CCC1 [Compound B70] here?
**A.** D (D indicates that the measured ED50 is in the range of 2.00-10.00 mg/kg (excluding 2.00 mg/kg, including 10.00 mg/kg))

**Q.** What about the Approximate therapeutic index (Sprague-Dawley rats) of the same compound?
**A.** >2

**Q.** What about the Minimal lethal dose (Sprague-Dawley rats) of the same compound?
**A.** >15 mg/kg

**Q.** What about the “Corticosterone as an indicator … of inhibition” value (H295R cell line [1]) of the same compound?
**A.** 0

**Q.** And the “Cortisol as an indicator … of inhibition” value (H295R cell line [1])?
**A.** 0

**Q.** What about the EC50 (H295R cell line [1]; [5]) of the same compound?
**A.** > 1000 nM

**Q.** And the EC50 (H295R cell line [1]; read-out: EC50 (Cortisol))?
**A.** > 1000 nM

**Q.** C[C@H](c1ccccc1)n1nncc1C(=O)OC1CC1 [Compound B18] was tested. Which ED50 (Sprague-Dawley rats; Rattus norvegicus) did it give?
**A.** 1 to 2 mg/kg

**Q.** What about the Approximate therapeutic index (Sprague-Dawley rats) of the same compound?
**A.** >12

**Q.** What about the Minimal lethal dose (Sprague-Dawley rats) of the same compound?
**A.** >14 mg/kg

**Q.** What about the “Corticosterone as an indicator … of inhibition” value (H295R cell line [1]) of the same compound?
**A.** 0

**Q.** What about the “Cortisol as an indicator … of inhibition” value (H295R cell line [1]) of the same compound?
**A.** 0

**Q.** And the EC50 (H295R cell line [1]; [3])?
**A.** > 100 nM

**Q.** What about the EC50 (H295R cell line [1]; [4]) of the same compound?
**A.** > 100 nM

**Q.** For C[C@H](c1ccccc1)n1cncc1C(=O)O [Etomidate acid, etomidate acid, reference compound], which “Corticosterone as an indicator … of inhibition” value (H295R cell line [2]) is on record?
**A.** 0

**Q.** What about the “Cortisol as an indicator … of inhibition” value (H295R cell line [2]) of the same compound?
**A.** 0

**Q.** What about the EC50 (H295R cell line [2]; [5]) of the same compound?
**A.** > 10000 nM

**Q.** What about the EC50 (H295R cell line [2]; read-out: EC50 (Cortisol)) of the same compound?
**A.** > 10000 nM

**Q.** What about the “Corticosterone as an indicator … of inhibition” value (H295R cell line [1]) of the same compound?
**A.** 0

**Q.** And the “Cortisol as an indicator … of inhibition” value (H295R cell line [1])?
**A.** 0

**Q.** And the EC50 (H295R cell line [1]; [5])?
**A.** > 10000 nM

**Q.** What about the EC50 (H295R cell line [1]; read-out: EC50 (Cortisol)) of the same compound?
**A.** > 10000 nM
